Measurements taken from patent US20040180812A1, “Methods of treating and preventing proliferative disease” (Technology Center, priority 2002, published 2004).
Where two headings read alike, the source gives them in different places.

How the values were obtained:
U-87 glioblastoma cells [1] = experiment: In-vitro determination of proliferation (Coulter counter); format: cell-based, human
Procedure: (§1) U-87 glioblastoma cells and A-549 non-small cell lung cancer cells (American Type Culture Collection) were maintained in alpha MEM (Sigma) with 10% fetal bovine serum (Atlanta Biologicals). Tumor cell lines were expanded as a monolayer culture by serial passage on tissue culture plates in tumor media (alpha MEM with 10% fetal bovine serum).
(§2) The cell doubling time was determined for both U-87 and A-549 tumor cells. A total of 1×10^6 Cells from resting culture were seeded in 50 mm flasks with medium and allowed to adhere for approximately Three hours. Clopidogrel and Aggrenox™ were then added in concentrations of 25, 50, or 100 μM. After further incubation for four hours, controls and treated dishes were trypsinized and counted in a Coulter Counter ZM. This count served as the starting count for proliferation and confirmed similar cell adhesion in each series. Cells were then counted every 24 hours for a total of 96 hours.

[2] = tested on: human U87 gliobastoma tumor xenografts
Procedure: Glioblastoma cell line U-87 (ATCC) was cultured in 150 cm^2 polystyrene flasks (Fisher cat. no. 355001) in Alpha MEM media (Cellgro® cat. no. 15-012-CV) supplemented with 10% FBS, 1× non essential amino acids (Cellgro® cat. no. 25-025-Cl), 0.1% glucose (Sigma® cat. no. G8644), 2 mM L-glutamine (Gibco BRL® cat. no. 25030-081) and 0.2% sodium bicarbonate (Cellgro® cat. no. 25-035-Cl) to sub-confluence (80%). Prior to cell dissociation, the culture was washed once with 1×PBS (Bio Whittaker® cat. no. 16-006Y) and dissociated with trypsin free Cellstripper™ (Cellgro® cat. no. 25-056-Cl). Suspended cells were counted using the model Z1 Coulter® particle counter.
Male mice (NCR-NU-M, Taconic®), 3-5 weeks old, were anesthetized with 0.2 mls Nembutal® (10 mg/ml in sterile water) subcutaneous in the back of the neck. Once anesthetized, each mouse was injected subcutaneous with 5×10^5 cells/0.2 ml in the right hind flank. Tumors were allowed to grow to 60 mm^3 prior to treatment. Tumor volume was calculated by the following formula from orthogonal measurements using Fisher Scientific® electronic digital calipers. [formula]
Tumors were allowed to grow to a final volume of 2000 mm^3 where upon the treatment was terminated and the mice were sacrificed using a CO2 gas chamber.
Treatment groups were evaluated for tumor growth delay. A 60 mg/kg/day solution of Plavix® (clopidogrel bisulfate) was prepared by crushing and dissolving 75 mg tablets in water (pH 1.0). The solute was filtered through a Nalgene® filtration unit (cat. no. 126-0020) and the pH raised to 1.78. Mice were gavaged daily with 0.2 ml solution of Plavix® and vehicle controls were gavaged daily with 0.2 ml acidified water pH 1.78.
Prior to X-ray irradiation, mice were anesthetized with […] Ketamine HCl (Ketaset III®, Fort Dodge®) and […] Acepromazine Maleate (Phoenix pharmaceutical, Inc.) by subcutaneous injection in the back to the neck. Tumors on the right hind leg were exposed to 7.5 Gy three times on alternate days for one week using a Pantek X-ray irradiator.

[3] = tested on: A-549 non-small cell lung cancer cells; experiment: In-vitro determination of proliferation (Coulter counter); format: cell-based
Procedure: as §1, §2

U-87 tumor = tested on: U-87 tumor
Procedure: In order to evaluate the effect of clopidogrel on U-87 tumor growth rate, U-87 cell suspension was injected subcutaneously into the right hind limb (5×10^5 cells in 50 μl PBS) of athymic NCR NUM mice (Taconic Farms). The clopidogrel was added to the drinking water in concentrations of 0.135 (low), 0.180 (intermediate) or 0.225 mg/ml (high). This was equivalent to an oral dose of approximately 15, 20, or 25 mg/kg/day. Mice were not pretreated prior to tumor implantation. The mice were randomized to five groups (control, low, intermediate and high concentration and non-solubilized drug) with five mice per group.
U-87 tumors were allowed to grow for approximately 10-14 days until reaching an approximate volume of 40-85 mm^3, before treatment. Tumor volume was determined daily by direct measurement with calipers and calculated by the formula [(smallest diameter^2×widest diameter)/2]. Daily weights were obtained.
Polynomial regression lines were fit to the data for each individual mouse for 20-24 days. Means were taken at two-day intervals for mice in each group.
U-87 cells were inoculated into the right hind limb of athymic NCR NUM mice. […] U-87 tumors were allowed to grow for approximately 10-14 days until reaching an approximate volume of 40-85 mm^3, before treatment. Clopidogrel was added to the drinking water in concentrations of 0.135 (low), 0.180 (intermediate) or 0.225 mg/ml (high). This was equivalent to an oral dose of approximately 15, 20, or 25 mg/kg/day. Tumor dimensions and animal weights were taken daily.

[4] = tested on: A-549 non-small cell lung cancer cells; experiment: Clonogenic assay; format: cell-based; conditions: 25, 50, 100 μM, four hours exposure
Procedure: as §1
(§3) The effect of clopidogrel and Aggrenox™ on U-87 and A-549 survival was determined by preparing single cell suspensions from each cell culture. The cells were subjected to three concentrations of each drug (25, 50, or 100 μM) for four hours in medium. The suspensions were serially diluted with medium. The cells were then seeded in triplicate in 50 mm flasks. After 6 to 14 days of incubation, the cultures were stained with crystal violet and counted.

U-87 glioblastoma cells [5] = experiment: Clonogenic assay; format: cell-based, human; conditions: 25, 50, 100 μM, four hours exposure
Procedure: as §1, §3

[6] = highest concentration 100 μM, counted every 24 h for 96 h

**Q.** Which results are given for `COC(=O)[C@H](c1ccccc1Cl)N1CCc2sccc2C1` [clopidogrel, clopidogrel bisulfate]?
**A.** proliferation of U-87 cells (U-87 glioblastoma cells [1]; [6]): considerably inhibited; cell proliferation (U-87) (U-87 glioblastoma cells [1]; lowest concentration (25 μM)): did not significantly affect cell proliferation; Tumor growth Delay (Experiment 1) ([2]; Plavix alone): 5 days; Tumor growth Delay (Experiment 2) ([2]; Plavix alone): 5 days; tumor growth delay (TGD) ([2]; Plavix alone, 60 mg/kg/day gavage): 5 days; Tumor growth Delay (Experiment 2) ([2]; Radiation plus Plavix): 16 days; tumor growth delay (TGD) ([2]; radiation (7.5 Gy three times) and Plavix 60 mg/kg/day combined): 16 days; TGD more than radiation alone ([2]; radiation and Plavix combined versus radiation alone): 4 days; A-549 cell proliferation [3, 6]: even more drastically inhibited; cell proliferation (A-549) ([3]; lowest concentration (25 μM)): did not significantly affect cell proliferation; dose response of tumor growth delay (U-87 tumor; 0.135, 0.180, 0.225 mg/ml in drinking water): A dose response was noted; tumor growth delay (U-87 tumor; highest concentration 0.225 mg/ml in drinking water, approx. 25 mg/kg/day oral): much more dramatic; tumor growth delay (U-87 tumor; lowest concentration 0.135 mg/ml in drinking water, approx. 15 mg/kg/day oral): small growth delay; A-549 clonogenic cell survival compared with Aggrenox results [4]: exaggerated; U-87 clonogenic cell survival compared with Aggrenox results (U-87 glioblastoma cells [5]): exaggerated
